{
  "source": "patent EP1840117A1",
  "about": "“Mono- and disubstituted 3-propyl gamma-aminobutyric acids” (Warner-Lambert Company LLC, priority 1999, dated 2000)",
  "key": {"DBA/2 mice": {"tested_on": "DBA/2 mice", "assay": "anticonvulsant protection (DBA2 mouse model of anticonvulsant efficacy, sound-induced seizures)", "type": "in vivo", "design": "Anticonvulsant % Protect 2 hr: concentration or dose not given beside the values", "settings": "for Anticonvulsant % Protect* 1h / Anticonvulsant % Protect* 2h: dosed at 30 mg/kg PO; for Anticonvulsant % Protect 2 hr: Table 1"}, "[1]": {"assay": "anxiolytic activity relative to pregabalin (model not given)", "type": "in vivo", "settings": "dosed at 30 mg/kg PO; percent of pregabalin activity"}},
  "data": [
    {"smiles": "CCCCC[C@H](C)C[C@H](CN)CC(=O)O", "note": "[(3S,5S)-3-Aminomethyl-5-methyl-decanoic acid]", "values": [
      {"measurement": "Anticonvulsant % Protect* 1h", "setting": "DBA/2 mice", "result": 0, "unit": "%"}
    ]},
    {"smiles": "CC(C)[C@H](C)[C@H](CN)CC(=O)O", "note": "[(3R,4S)-3-Aminomethyl-4,5-dimethyl-hexanoic acid]", "values": [
      {"measurement": "Anxiolytic Activity* % Preg. Act.", "setting": "[1]", "result": 58, "unit": "%"}
    ]},
    {"smiles": "CCC(C)CC(CN)CC(=O)O", "note": "(centres unmarked)", "values": [
      {"measurement": "Anticonvulsant % Protect 2 hr", "setting": "DBA/2 mice", "result": 100, "unit": "%"}
    ]},
    {"smiles": "CC(C)[C@@H](C)C(CN)CC(=O)O", "note": "(some centres unmarked)", "values": [
      {"measurement": "Anticonvulsant % Protect 2 hr", "setting": "DBA/2 mice", "result": 100, "unit": "%"}
    ]},
    {"smiles": "CC(C)CC(CN)CC(=O)O", "note": "(centres unmarked) [reference compound]", "values": [
      {"measurement": "Anticonvulsant % Protect 2 hr", "setting": "DBA/2 mice", "result": 100, "unit": "%"}
    ]},
    {"smiles": "CC[C@@H](C)[C@H](CN)CC(=O)O", "values": [
      {"measurement": "Anticonvulsant % Protect 2 hr", "setting": "DBA/2 mice", "result": 0, "unit": "%"}
    ]},
    {"smiles": "CCC[C@@H](C)C[C@H](CN)CC(=O)O.Cl", "note": "[(3S,5R)-3-Aminomethyl-5-methyl-octanoic acid hydrochloride]", "values": [
      {"measurement": "Anticonvulsant % Protect* 1h", "setting": "DBA/2 mice", "result": 100, "unit": "%"},
      {"measurement": "Anticonvulsant % Protect* 2h", "setting": "DBA/2 mice", "result": 100, "unit": "%"}
    ]},
    {"smiles": "CCCC(C)CC(CN)CC(=O)O", "note": "(centres unmarked) [3-Aminomethyl-5-methyloctanoic acid, 3-Aminomethyl-5-methyl-octanoic acid]", "values": [
      {"measurement": "Anticonvulsant % Protect* 2h", "setting": "DBA/2 mice", "result": 100, "unit": "%"}
    ]},
    {"smiles": "CCC(CC)C(CN)CC(=O)O", "note": "(centres unmarked)", "values": [
      {"measurement": "Anticonvulsant % Protect 2 hr", "setting": "DBA/2 mice", "result": 20, "unit": "%"}
    ]},
    {"smiles": "CC(C)[C@@H](C)[C@@H](CN)CC(=O)O", "note": "[(3S,4R)3-Aminomethyl-4,5-dimethyl-hexanoic acid]", "values": [
      {"measurement": "Anxiolytic Activity* % Preg. Act.", "setting": "[1]", "result": 12, "unit": "%"}
    ]}
  ]
}
